Measurements as given in patent publication US7968568B2, “Substituted piperidine derivatives as SST5 modulators” (Hoffmann-La Roche Inc., priority 2006, dated 2011).

Molecular target: T1, human subtype 5 somatostatin receptor (Homo sapiens, UniProt P35346)
T1 construct: host or cells: CHO cell line, stably transfected; membranes prepared
Experiment: SSTR5 radioligand binding assay (125I-labeled 11-Tyr somatostatin-14) on CHO cell membranes
Settings: Ki calculated from IC50 by Cheng-Prussoff equation
Protocol: A CHO cell line stably transfected with a plasmid encoding the human subtype 5 somatostatin receptor (GenBank accession number D16827) was obtained from Euroscreen. Cells were cultured and used for binding and functional assays.
Membranes of these cells were prepared by sonication in the presence of protease inhibitors and subsequent fractionating centrifugation. The protein concentration in the membrane preparation was determined using a commercial kit (BCA kit, Pierce, USA). Membranes were stored at −80° C. until use. After thawing, membranes were diluted in assay buffer (50 mM Tris-HCl at pH 7.4, 5 mM MgCl2 and 0.20% BSA) and subjected to dounce homogenization.
For binding studies, 0.1 mL membrane suspension, corresponding to app. 6×10^−15 mol receptor, was incubated for 1 h at room temperature with 0.05 nM ^125I-labeled tracer (11-Tyr somatostatin-14, Perkin-Elmer) and either test compounds in varying concentrations or, for the determination of non-specific binding, 0.001 mM non-labeled somatostatin-14. The incubation was stopped by filtration through GF/B glassfiber filters and washing with ice-cold wash buffer (50 mM Tris-HCl at pH 7.4). The bound radioactivity was measured after application of a scintillation cocktail (Microscint 40) and expressed as disintegrations per minute (dpm).
The receptor concentration was determined in a prior saturation experiment where a fixed, arbitrary amount of membranes was incubated with a concentration range of radio-labeled tracer. This allows estimating the total number of specific binding sites per amount of protein (i.e., Bmax), typically between 1 and 5 pmol/mg.
The concentration of the test compound required to result in half maximal inhibition of binding of the radio-labeled tracer (IC50) was estimated from a concentration-versus-dpm graph. The binding affinity (Ki) was calculated from the IC50 by applying the Cheng-Prussoff equation for single binding sites.

T1 sequence (P35346 whole entry): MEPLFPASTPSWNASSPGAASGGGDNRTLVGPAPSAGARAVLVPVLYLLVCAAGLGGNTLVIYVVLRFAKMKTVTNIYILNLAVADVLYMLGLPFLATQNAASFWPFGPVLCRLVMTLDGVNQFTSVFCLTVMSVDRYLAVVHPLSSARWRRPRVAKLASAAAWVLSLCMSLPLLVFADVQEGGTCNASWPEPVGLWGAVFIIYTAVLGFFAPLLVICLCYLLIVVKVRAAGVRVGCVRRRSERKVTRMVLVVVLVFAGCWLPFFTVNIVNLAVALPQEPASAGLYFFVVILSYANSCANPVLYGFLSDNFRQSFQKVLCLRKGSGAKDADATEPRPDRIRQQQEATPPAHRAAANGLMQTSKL

SMILES	Ki [nM]
CCOc1cc(CN2CCC(Nc3nc(Cl)nc4cc(Cl)c(F)cc34)CC2)ccc1OC [Example 15, (2,7-dichloro-6-fluoro-quinazolin-4-yl)-[1-(3-ethoxy-4-methoxy-benzyl)-piperidin-4-yl]-amine]	383
CCOc1cc(CN2CCC(Nc3ncnc4cc(Cl)ccc34)CC2)ccc1Cl [Example 23, [1-(4-chloro-3-ethoxy-benzyl)-piperidin-4-yl]-(7-chloro-quinazolin-4-yl)-amine]	2
C=CCOc1cc(CN2CCC(Nc3nc(Cl)ncc3OC)CC2)ccc1OC [Example 147, [1-(3-allyloxy-4-methoxy-benzyl)-piperidin-4-yl]-(2-chloro-5-methoxy-pyrimidin-4-yl)-amine]	78
